According to ChEMBL document CHEMBL1125556, “Fluoroquinolones: relationships between structural variations, mammalian cell cytotoxicity, and antimicrobial activity” (J Med Chem, 1992):
Converted amounts (≈) assume the structure as drawn.

Key:
V79 = experiment: Mammalian cell cytotoxicity test in chinese hamster V79 cells (clonogenic cytotoxicity); type: functional, cell-based
[1] = Antibacterial activity against five Gram-negative bacteria; type: functional
[2] = Cricetulus griseus, V79, read-out: IC50

NCC1CCN(c2nc3c(cc2F)c(=O)c(C(=O)O)cn3C2CC2)C1 (stereo not drawn)
IC50 (V79; [2]): 51 µg/mL (≈ 147 µM) | MIC ([1]; read-out: MIC): 0.14 µg/mL (≈ 0.404 µM)

CCNCC1CCN(c2c(F)cc3c(=O)c(C(=O)O)cn(CCO)c3c2F)C1 (stereo not drawn)
IC50 (V79; [2]): > 500 µg/mL | MIC ([1]; read-out: MIC): 50 µg/mL (≈ 126 µM)

NC1CCN(c2c(F)c(Cl)c3c(=O)c(C(=O)O)cn(C4CC4)c3c2Cl)C1 (stereo not drawn)
IC50 (V79; [2]): > 500 µg/mL | MIC ([1]; read-out: MIC): 0.13 µg/mL (≈ 0.325 µM)

NC1CCN(c2c(F)cc3c(=O)c(C(=O)O)cn(C4CC4)c3c2Cl)C1 (stereo in doubt; 46) [CLINAFLOXACIN]
IC50 (V79; v79): 26 µg/mL (≈ 71.1 µM) | MIC [1]: 0.03 µg/mL (≈ 0.082 µM)

COc1c(N2CCC(C)(N)C2)c(F)cc2c(=O)c(C(=O)O)cn(C3CC3)c12 (stereo not drawn)
IC50 (V79; [2]): 38 µg/mL (≈ 101 µM) | MIC ([1]; read-out: MIC): 0.26 µg/mL (≈ 0.693 µM)

CCNCC1CCN(c2c(F)cc3c(=O)c(C(=O)O)cn(NC)c3c2F)C1 (stereo not drawn)
IC50 (V79; [2]): > 500 µg/mL | MIC ([1]; read-out: MIC): 0.26 µg/mL (≈ 0.684 µM)

CCNCC1CCN(c2cc3c(c(N)c2F)c(=O)c(C(=O)O)cn3C2CC2)C1 (stereo not drawn)
IC50 (V79; [2]): 61 µg/mL (≈ 157 µM) | MIC ([1]; read-out: MIC): 0.35 µg/mL (≈ 0.901 µM)

NCC1CCN(c2c(F)cc3c(=O)c(C(=O)O)cn(C4CC4)c3c2F)C1 (stereo not drawn)
IC50 (V79; [2]): 11 µg/mL (≈ 30.3 µM) | MIC ([1]; read-out: MIC): 0.05 µg/mL (≈ 0.138 µM)

CC1(CN)CCN(c2c(F)cc3c(=O)c(C(=O)O)cn(C4CC4)c3c2F)C1 (stereo not drawn)
IC50 (V79; [2]): 8 µg/mL (≈ 21.2 µM) | MIC ([1]; read-out: MIC): 0.13 µg/mL (≈ 0.344 µM)

NC1CCN(c2c(F)cc3c(=O)c(C(=O)O)cn(-c4ccc(F)cc4F)c3c2Cl)C1 (stereo not drawn)
IC50 (V79; [2]): 89 µg/mL (≈ 203 µM) | MIC ([1]; read-out: MIC): 0.23 µg/mL (≈ 0.525 µM)

CCNCC1CCN(c2c(F)c(NC)c3c(=O)c(C(=O)O)cn(C4CC4)c3c2F)C1 (stereo not drawn)
IC50 (V79; [2]): 53 µg/mL (≈ 126 µM) | MIC ([1]; read-out: MIC): 0.69 µg/mL (≈ 1.64 µM)

Nc1c(F)c(N2CCC(N)C2)c(F)c2c1c(=O)c(C(=O)O)cn2C1CC1 (stereo not drawn)
IC50 (V79; [2]): 15 µg/mL (≈ 41.2 µM) | MIC ([1]; read-out: MIC): 0.01 µg/mL (≈ 0.0274 µM)

CC1CN(c2c(F)cc3c(=O)c(C(=O)O)cn(C4CC4)c3c2Cl)CCN1 (stereo not drawn)
IC50 (V79; [2]): 45 µg/mL (≈ 118 µM) | MIC ([1]; read-out: MIC): 0.08 µg/mL (≈ 0.211 µM)

CC1(CN)CCN(c2nc3c(cc2F)c(=O)c(C(=O)O)cn3C2CC2)C1 (stereo not drawn)
IC50 (V79; [2]): 25 µg/mL (≈ 69.4 µM) | MIC ([1]; read-out: MIC): 0.35 µg/mL (≈ 0.971 µM)

NC1CCN(c2c(F)cc3c(=O)c(C(=O)O)cn(C4CC4)c3c2Cl)C1 (stereo in doubt; 24c) [CLINAFLOXACIN]
IC50 (V79; [2]): 26 µg/mL (≈ 71.1 µM) | MIC ([1]; read-out: MIC): 0.03 µg/mL (≈ 0.082 µM)

O=C(O)c1cn(C2CC2)c2c(C(F)(F)F)c(N3CCCC3)c(F)cc2c1=O
IC50 (V79; [2]): 280 µg/mL (≈ 729 µM) | MIC ([1]; read-out: MIC): 12.5 µg/mL (≈ 32.5 µM)

NCC1CCN(c2cc3c(cc2F)c(=O)c(C(=O)O)cn3C2CC2)C1 (stereo not drawn)
IC50 (V79; [2]): 81 µg/mL (≈ 235 µM) | MIC ([1]; read-out: MIC): 0.2 µg/mL (≈ 0.579 µM)

NC1CCCN(c2cc3c(cc2F)c(=O)c(C(=O)O)cn3C2CC2)C1 (stereo not drawn)
IC50 (V79; [2]): > 500 µg/mL | MIC ([1]; read-out: MIC): 0.91 µg/mL (≈ 2.63 µM)

CC1(CN)CCN(c2c(F)cc3c(=O)c(C(=O)O)cn(C4CC4)c3c2C(F)(F)F)C1 (stereo not drawn)
IC50 (V79; [2]): 110 µg/mL (≈ 257 µM) | MIC ([1]; read-out: MIC): 1 µg/mL (≈ 2.34 µM)

CNCC1(C)CCN(c2c(F)cc3c(=O)c(C(=O)O)cn(C4CC4)c3c2F)C1 (stereo not drawn)
IC50 (V79; [2]): 8 µg/mL (≈ 20.4 µM) | MIC ([1]; read-out: MIC): 0.23 µg/mL (≈ 0.588 µM)

CCNCC1CCN(c2nc3c(cc2F)c(=O)c(C(=O)O)cn3C2CC2)C1 (stereo not drawn)
IC50 (V79; [2]): 160 µg/mL (≈ 427 µM) | MIC ([1]; read-out: MIC): 0.21 µg/mL (≈ 0.561 µM)

O=C(O)c1cn(C2CC2)c2c(C(F)(F)F)c(N3CCNCC3)c(F)cc2c1=O
IC50 (V79; [2]): 1650 µg/mL (≈ 4130 µM) | MIC ([1]; read-out: MIC): 0.15 µg/mL (≈ 0.376 µM)

C=Cn1cc(C(=O)O)c(=O)c2cc(F)c(N3CCC(N)C3)c(F)c21 (stereo not drawn)
IC50 (V79; [2]): 310 µg/mL (≈ 925 µM) | MIC ([1]; read-out: MIC): 0.13 µg/mL (≈ 0.388 µM)

Nc1c(F)c(N2CCC(N)C2)c(Cl)c2c1c(=O)c(C(=O)O)cn2C1CC1 (stereo not drawn)
IC50 (V79; [2]): 59 µg/mL (≈ 155 µM) | MIC ([1]; read-out: MIC): 0.08 µg/mL (≈ 0.21 µM)

Cc1c(F)c(N2CCC(N)C2)c(C(F)(F)F)c2c1c(=O)c(C(=O)O)cn2C1CC1 (stereo not drawn)
IC50 (V79; [2]): 290 µg/mL (≈ 702 µM) | MIC ([1]; read-out: MIC): 0.91 µg/mL (≈ 2.2 µM)

COc1c(N2CCC(N)C2)c(F)c(N)c2c(=O)c(C(=O)O)cn(C3CC3)c12 (stereo not drawn)
IC50 (V79; [2]): 100 µg/mL (≈ 266 µM) | MIC ([1]; read-out: MIC): 0.11 µg/mL (≈ 0.292 µM)

CCn1cc(C(=O)O)c(=O)c2cc(F)c(N3CCC(N)C3)c(F)c21 (stereo not drawn)
IC50 (V79; [2]): 300 µg/mL (≈ 889 µM) | MIC ([1]; read-out: MIC): 0.12 µg/mL (≈ 0.356 µM)

NC1CCN(c2c(F)c(F)c3c(=O)c(C(=O)O)cn(C4CC4)c3c2F)C1 (stereo not drawn)
IC50 (V79; [2]): 100 µg/mL (≈ 272 µM) | MIC ([1]; read-out: MIC): 0.08 µg/mL (≈ 0.218 µM)

NC1CCN(c2cc3c(cc2F)c(=O)c(C(=O)O)cn3C2CC2)C1 (stereo in doubt; 24a)
IC50 (V79; [2]): 72 µg/mL (≈ 217 µM) | MIC ([1]; read-out: MIC): 0.09 µg/mL (≈ 0.272 µM)
